Experimental data taken from patent publication US20220305115A1 (JANSSEN SCIENCES IRELAND UNLIMITED COMPANY, priority 2019, published 2022).

Tests used:
Assay type in all cases: cell-based
[1] = Off-target cytotoxicity, MT-4 cells (Cell Titer Glo, 5 days); conditions: human, MT-4, five days incubation, intracellular ATP, read-out: CC50 (MT4)
Excerpt: (§1) To assess potential off-target toxicity of certain compounds disclosed herein, the in vitro cytotoxicity of those compounds was profiled using a panel of 5 cell lines with various tissue origins. Compound cytotoxicity was examined in hepatoma-derived Huh-7 and HepG2 cells, prostate carcinoma-derived PC-3 cells, lymphoma derived MT-4 cells and a normal diploid lung cell line MRC-5. HepG2 and PC-3 cells used were adapted to grow in glucose-free galactose-containing medium. […] Cell viability was determined by measuring intracellular ATP levels following five days of continuous incubation with test compounds.
(§2) The MT-4 cell line (HTLV-1 transformed, human T lymphoblastoid cells) was obtained from the NIH AIDS Reagent program (Bathesda, Md.). The human hepatoblastoma cell line HepG2, human prostate carcinoma cell line PC-3, and normal fetal lung derived MRC-5 cells were obtained from the American Type Culture Collection (ATCC, Manassas, Va.).
(§3) Huh-7 cells were maintained in Dulbecco's Modified Eagle Medium (DMEM) supplemented with 10% fetal bovine serum (FBS, Hyclone, Logan, Utah), 1% non-essential amino acids (Gibco, Carlsbad, Calif.). PC-3 and HepG2 cells were adapted to grow in 0.2% galactose-containing, glucose-free Dulbecco's Modified Eagle Medium (DMEM) supplemented with 10% fetal bovine serum (FBS, Hyclone, Logan, Utah), 1% non-essential amino acids (Gibco, Carlsbad, Calif.), 1% Pyruvate (Cellgro), 1% Glutamax (Invitrogen, Carlsbad, Calif.). Galactose-adapted cells were maintained in the same culture medium. MRC-5 cells were maintained in Eagle's Minimum Essential Medium (EMEM) supplemented with 10% fetal bovine serum (FBS, Hyclone, Logan, Utah). […] All cell culture media were also supplemented with 100 Units/mL penicillin, 100 μg/mL streptomycin (Gibco).
For the MT-4 cytotoxicity assay, 0.4 μL of serially diluted compounds were added to 40 μl of cell maintenance media in 384-well black, solid bottom plate using a Biomek FX workstation (Beckman Coulter). Two thousand cells in 35 μL were added to each well using a Biotek uFlow Workstation (Biotek). […] Assay plates were incubated for five days at 37° C. in an incubator set at 5% CO2 and 90% humidity. After five days, 22 μL of Cell Titer Glo reagent (Promega) was added to the assay plates with a Biotek uFlow Workstation. Plates were subsequently placed on a Perkin Elmer Envision Plate Reader for five minutes before the luminescence signal was read.

[2] = Off-target cytotoxicity, MRC-5 cells (Cell Titer Glo, 5 days); conditions: human, MRC-5 cells; MRC-5, five days incubation, intracellular ATP; read-out: CC50 MHCS CTG 50
Excerpt: (§4) To assess potential off-target toxicity of certain compounds disclosed herein, the in vitro cytotoxicity of those compounds was profiled using a panel of 5 cell lines with various tissue origins. Compound cytotoxicity was examined in hepatoma-derived Huh-7 and HepG2 cells, prostate carcinoma-derived PC-3 cells, lymphoma derived MT-4 cells and a normal diploid lung cell line MRC-5. HepG2 and PC-3 cells used were adapted to grow in glucose-free galactose-containing medium. These cells have a relatively higher sensitivity to inhibitors of mitochondrial oxidative phosphorylation compared to the same cells maintained in standard glucose-containing culture medium (Marroquin et al., Toxicol. Sci. 2007; 97 (2):539-47). Cell viability was determined by measuring intracellular ATP levels following five days of continuous incubation with test compounds.
as §2, with “The human hepatoma Huh-7 cell line was obtained from ReBLikon GmbH (Mainz, Germany) {20879}. The MT-4” for “The MT-4”
(§5) Huh-7 cells were maintained in Dulbecco's Modified Eagle Medium (DMEM) supplemented with 10% fetal bovine serum (FBS, Hyclone, Logan, Utah), 1% non-essential amino acids (Gibco, Carlsbad, Calif.). PC-3 and HepG2 cells were adapted to grow in 0.2% galactose-containing, glucose-free Dulbecco's Modified Eagle Medium (DMEM) supplemented with 10% fetal bovine serum (FBS, Hyclone, Logan, Utah), 1% non-essential amino acids (Gibco, Carlsbad, Calif.), 1% Pyruvate (Cellgro), 1% Glutamax (Invitrogen, Carlsbad, Calif.). Galactose-adapted cells were maintained in the same culture medium. MRC-5 cells were maintained in Eagle's Minimum Essential Medium (EMEM) supplemented with 10% fetal bovine serum (FBS, Hyclone, Logan, Utah). MT-4 cells were maintained in RPMI-1640 supplemented with 10% fetal bovine serum (FBS, Hyclone, Logan, Utah). All cell culture media were also supplemented with 100 Units/mL penicillin, 100 μg/mL streptomycin (Gibco).
(§6) Using a Biotek uFlow Workstation (Biotek, Winooski, Vt.), 1500 HepG2, 1500 PC-3, 500 Huh7 or 1500 MRC-5 cells in 90 μL of culture media were dispensed into each well of black polystyrene tissue culture-treated 384-well plates. Plated cells were incubated for 24 hours in an incubator at 37° C., 5% CO2 and 90% humidity. Compound serial dilutions were performed in 100% DMSO in 384-well polypropylene (high recovery) plates on a Biomek FX Workstation (Beckman Coulter, Fullerton, Calif.). After 3-fold serial dilutions, 0.4 μL of compounds were transferred into 384-well plates containing cells using a Velocity 11 system equipped with a Bravo 384-well pipettor. The DMSO concentration in the final assay plates was 0.44% (v/v). Cells were incubated with compound(s) for five days at 37° C. Puromycin (44 μM final concentration) and DMSO (0.44%, v/v) were used as a positive and negative controls, respectively
(§7) At the end of the incubation period the cytotoxicity assay was performed as follows: Media from 384-well cell culture plates were aspirated with a Biotek EL405 plate-washer (Biotek) and cells were washed with 100 μL PBS once. Twenty microliters of Cell Titer Glo (Promega, Madison, Wis.) was added to each well of the plates with a Biotek uFlow liquid dispenser. Plates were incubated for 15 minutes at room temperature before luminescence was measured with a Perkin Elmer Envision Plate Reader (Perkin Elmer, Waltham, Mass.).
(§8) CC50 values were defined as the compound concentration that caused a 50% decrease in luminescence signal, and were calculated by non-linear regression using Pipeline Pilot software by applying a four parameter fit equation (Accelrys, San Diego, Calif.). Individual CC50 values are listed as μM concentrations.

[3] = Off-target cytotoxicity, galactose-adapted PC-3 cells (Cell Titer Glo, 5 days); conditions: human, galactose-adapted PC-3, five days incubation, intracellular ATP, read-out: CC50 GALFC3 CTG 50
Excerpt: as §1, §2, §3
as §6, with “C.” for “C. Puromycin (44 μM final concentration) and DMSO (0.44%, v/v) were used as a positive and negative controls, respectively”
as §7

[4] = Off-target cytotoxicity, galactose-adapted HepG2 cells (Cell Titer Glo, 5 days); conditions: human, galactose-adapted HepG2, five days incubation, intracellular ATP, read-out: CC50 GALHEPG2 CTG 50
Excerpt: as §4
as §2, with “The human hepatoma Huh-7 cell line was obtained from ReBLikon GmbH (Mainz, Germany) {20879}. The MT-4” for “The MT-4”
as §5, §6, §7, §8

[5] = Off-target cytotoxicity, Huh-7 cells (Cell Titer Glo, 5 days); conditions: human, Huh-7 cells; Huh-7, five days incubation, intracellular ATP; read-out: CC50 HEH7 CTG 50
Excerpt: as §4
as §2, with “The human hepatoma Huh-7 cell line was obtained from ReBLikon GmbH (Mainz, Germany) {20879}. The MT-4” for “The MT-4”
as §5, §6, §7, §8

Huh-7 cells = test: as above; conditions: Huh-7, five days incubation, intracellular ATP; read-out: CC50 HEH7 CTG 50
Excerpt: as §4
as §2, with “The human hepatoma Huh-7 cell line was obtained from ReBLikon GmbH (Mainz, Germany) {20879}. The MT-4” for “The MT-4”
as §5, §6, §7, §8

MRC-5 cells = test: Off-target cytotoxicity, MRC-5 cells (Cell Titer Glo, 5 days); conditions: MRC-5, five days incubation, intracellular ATP; read-out: CC50 MHCS CTG 50
Excerpt: as §4
as §2, with “The human hepatoma Huh-7 cell line was obtained from ReBLikon GmbH (Mainz, Germany) {20879}. The MT-4” for “The MT-4”
as §5, §6, §7, §8

Row | SMILES | CC50 at 5 days [1] [µM] | CC50 at 5 days [2] [µM] | CC50 at 5 days [3] [µM] | CC50 at 5 days [4] [µM] | CC50 at 5 days [5] [µM] | CC50 (Huh-7 cells) [µM] | CC50 (MRC-5 cells) [µM]
1 | CCCC[C@H](CO)Nc1nc(N)nc2cccnc12 [Compound 15, (R)-2-((2-aminopyrido[3,2-d]pyrimidin-4-yl)amino)hexan-1-ol] | 8.62 | 7.6 | 0.69 | 1.23 | 19.7 |  | 
2 | CCCC[C@](CO)(Nc1nc(N)nc2cccnc12)C(F)(F)F [Compound 93, (R)-2-((2-aminopyrido[3,2-d]pyrimidin-4-yl)amino)-2-(trifluoromethyl)hexan-1-ol] | 18.6 | 38.9 | 3.63 | 7.73 |  | 44.4 | 
3 | CCCC[C@@](C)(Nc1nc(N)nc2cc(F)cnc12)C(C)O (single isomer, unassigned) [Compound 95] | 44.1 |  | 16.8 | 28.1 | 31.3 |  | 44.4
4 | CCCC[C@](C)(CO)Nc1nc(N)nc2cc(F)cnc12 [Compound 98, (R)-2-((2-amino-7-fluoropyrido[3,2-d]pyrimidin-4-yl)amino)-2-methylhexan-1-ol] | 16.2 | 24.4 | 4.53 | 6.7 | 21.9 |  | 
5 | CCCC[C@@](C)(Nc1nc(N)nc2cccnc12)C(C)O (single isomer, unassigned) [Compound 97] | 30 |  | 27.5 | 33 |  | 44.4 | 44.4
6 | CCCC[C@H](CO)Nc1nc(N)nc2cc(F)cnc12 [Compound 44, (R)-2-((2-amino-7-fluoropyrido[3,2-d]pyrimidin-4-yl)amino)hexan-1-ol] | 1.97 | 3.72 | 0.52 | 1.07 | 9.64 |  | 
7 | CCCC[C@@](C)(CO)Nc1nc(N)nc2cc(F)cnc12 [Compound 64, (S)-2-((2-amino-7-fluoropyrido[3,2-d]pyrimidin-4-yl)amino)-2-methylhexan-1-ol] | 6.79 | 6.97 | 1.99 | 3.56 | 10.4 |  | 
8 | CCCC[C@](C)(CNC(C)=O)Nc1nc(N)nc2cccnc12 [Compound 61] | 212 |  | 44.4 | ≥ 44.4 |  | 44.4 | 44.4
9 | CCCC[C@H](CNC(C)=O)Nc1nc(N)nc2cccnc12 [Compound 51, (R)—N-(2-((2-aminopyrido[3,2-d]pyrimidin-4-yl)amino)hexyl)acetamide] | 57.1 |  | 37.2 | ≥ 44.4 |  | 44.4 | 44.4
